Values quoted from earlier work in US11851709B2, “HER2 as a predictor of response to dual HER2 blockade in the absence of cytotoxic therapy” (FUNDACIÓ PRIVADA INSTITUT D'INVESTIGACIÓ ONCOLÓGICA DE VALL …, priority 2016, dated 2023).

What was measured:
HER2+ breast cancer = settings: at 4.5-years; added to adjuvant trastuzumab and chemotherapy; statistically non-significant
[1] = tested on: node-positive breast cancer; settings: interaction between HER2 positivity and addition of paclitaxel; P=0.01

CS(=O)(=O)CCNCc1ccc(-c2ccc3ncnc(Nc4ccc(OCc5cccc(F)c5)c(Cl)c4)c3c2)o1 [lapatinib]
absolute benefit in DFS (HER2+ breast cancer): ~2%

CC(=O)O[C@H]1C(=O)[C@@]2(C)[C@H]([C@H](OC(=O)c3ccccc3)[C@]3(O)C[C@H](OC(=O)[C@H](O)[C@@H](NC(=O)c4ccccc4)c4ccccc4)C(C)=C1C3(C)C)[C@]1(OC(C)=O)CO[C@@H]1C[C@@H]2O [paclitaxel]
hazard ratio for recurrence [1]: 0.59
